Data set [1] has as its target T1, human GIP receptor (GIPR) (Homo sapiens, UniProt P48546).
T1 construct: expressed in transfected cells; host or cells: HEK293 (membranes)
T1 sequence (P48546 22-466): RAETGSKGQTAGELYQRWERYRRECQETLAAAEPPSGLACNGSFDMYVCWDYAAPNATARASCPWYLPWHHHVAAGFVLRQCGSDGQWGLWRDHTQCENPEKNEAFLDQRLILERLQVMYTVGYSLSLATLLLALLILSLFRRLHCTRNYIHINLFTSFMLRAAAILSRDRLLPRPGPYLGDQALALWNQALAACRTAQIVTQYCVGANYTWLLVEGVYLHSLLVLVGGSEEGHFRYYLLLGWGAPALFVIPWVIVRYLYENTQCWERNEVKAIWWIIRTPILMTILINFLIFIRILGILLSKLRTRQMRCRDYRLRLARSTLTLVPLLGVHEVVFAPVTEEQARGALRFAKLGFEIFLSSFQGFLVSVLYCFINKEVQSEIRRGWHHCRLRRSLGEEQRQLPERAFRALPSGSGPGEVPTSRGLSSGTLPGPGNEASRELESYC
The data set is described as follows: Radioligand competition binding (SPA), human GIPR membranes. The source says:
(§1) Radioligand competition binding assays are run to determine the equilibrium dissociation constant for exemplary compounds and comparator molecules.
(§2) Competition curves are plotted as the percent specific inhibition (y-axis) versus log concentration of compound (x-axis) and analyzed using a four parameter nonlinear regression fit with variable slope (ABase or Genedata).
(In general: In a radioligand displacement assay an active substance lowers the binding of a labelled ligand.)

Data set [2] can be described thus: Pharmacokinetics in male Sprague Dawley rats. The settings on record: for CL/F / Tmax / half-life: male, Sprague-Dawley, rat, plasma, sc, 100 nmol/kg; for AUCINF_D_obs / Cmax/D: single subcutaneous 100 nMol/kg, male Sprague Dawley rats, n = 3.
Experimental: The pharmacokinetics of the exemplary analogs are evaluated following a single subcutaneous administration of 100 nM/kg to male Sprague Dawley rats. Blood samples are collected over 120 hours, and resulting individual plasma concentrations are used to calculate pharmacokinetic parameters. Peptide plasma (K3 EDTA) concentrations are determined using a qualified LC/MS method that measured the intact mass of the analog. Each peptide and an analog as an internal standard are extracted from 100% specie specified plasma using methanol with 0.1% formic acid. A Thermo Q-Exactive, High Resolution Instrument, and a Thermo Easy Spray PepMap are combined for LC/MS detection.
The target in data set [3] is T2, human glucagon receptor (GcgR) (Homo sapiens, UniProt P47871).
T2 construct: expressed in transfected cells; host or cells: HEK293 (membranes)
Put plainly: Radioligand competition binding (SPA), human GcgR membranes.
From the text: as §1, §2

The next data set addresses T3, GLP-1 receptor (GLP-1R) (Homo sapiens, UniProt P43220).
T3 construct: expressed in transfected cells; host or cells: HEK293 (membranes)
The data set is described as follows: Radioligand competition binding (SPA), human GLP-1R membranes.
From the text: as §1, §2

The text below walks through data of patent US11542313B2, “Incretin analogs and uses thereof” (Eli Lilly and Company, priority 2017, dated 2023).

SMILES strings stand for the structures.

T3 sequence (P43220 24-463): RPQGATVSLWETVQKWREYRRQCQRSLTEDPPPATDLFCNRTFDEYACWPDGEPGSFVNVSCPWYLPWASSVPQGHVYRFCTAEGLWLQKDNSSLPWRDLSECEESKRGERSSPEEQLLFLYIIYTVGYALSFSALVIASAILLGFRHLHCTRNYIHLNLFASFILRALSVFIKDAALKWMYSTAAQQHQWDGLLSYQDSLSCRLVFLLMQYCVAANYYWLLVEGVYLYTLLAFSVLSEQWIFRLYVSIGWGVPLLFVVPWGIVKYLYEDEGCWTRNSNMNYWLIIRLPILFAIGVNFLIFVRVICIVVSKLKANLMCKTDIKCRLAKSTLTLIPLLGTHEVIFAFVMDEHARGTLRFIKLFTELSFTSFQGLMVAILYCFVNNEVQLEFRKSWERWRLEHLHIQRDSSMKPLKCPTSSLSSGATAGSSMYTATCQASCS
T2 sequence (P47871 26-477): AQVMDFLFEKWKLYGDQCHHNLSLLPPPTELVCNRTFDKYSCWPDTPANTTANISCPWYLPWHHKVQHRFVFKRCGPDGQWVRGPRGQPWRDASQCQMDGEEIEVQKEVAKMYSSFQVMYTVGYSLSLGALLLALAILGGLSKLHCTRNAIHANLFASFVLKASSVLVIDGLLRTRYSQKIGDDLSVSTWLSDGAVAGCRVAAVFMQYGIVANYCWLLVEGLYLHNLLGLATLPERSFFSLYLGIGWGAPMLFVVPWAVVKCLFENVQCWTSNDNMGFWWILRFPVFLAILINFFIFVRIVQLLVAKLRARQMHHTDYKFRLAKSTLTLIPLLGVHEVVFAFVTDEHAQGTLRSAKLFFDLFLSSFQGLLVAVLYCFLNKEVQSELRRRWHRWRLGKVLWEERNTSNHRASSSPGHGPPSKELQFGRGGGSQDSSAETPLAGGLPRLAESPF

By Ki is commonly meant a dissociation constant, usually derived from enzyme kinetics or from competition with a known ligand. Low readings indicate tighter binding, high ones weaker binding. A word on the CL/F: it is the apparent clearance, not corrected for the fraction that reaches the circulation. As usually defined, the Tmax is the time at which the peak concentration occurs. Broadly, the half-life is how long it takes for the measured level to halve. High values mean slow decline, low ones rapid decline. For the molecule `CC[C@H](C)[C@H](NC(=O)[C@H](Cc1ccccc1)NC(=O)[C@H](C)NC(=O)C(C)(C)NC(=O)[C@H](CCC(N)=O)NC(=O)[C@H](C)NC(=O)[C@H](CCCCNC(=O)COCCOCCNC(=O)COCCOCCNC(=O)CC[C@H](NC(=O)CCCCCCCCCCCCCCCCCCC(=O)O)C(=O)O)NC(=O)[C@H](CCCCN)NC(=O)[C@H](CC(=O)O)NC(=O)[C@H](CC(C)C)NC(=O)[C@H](CC(C)C)NC(=O)[C@@H](NC(=O)[C@H](CO)NC(=O)[C@H](Cc1ccc(O)cc1)NC(=O)[C@H](CC(=O)O)NC(=O)[C@H](CO)NC(=O)[C@@H](NC(=O)[C@H](Cc1ccccc1)NC(=O)[C@@H](NC(=O)CNC(=O)[C@H](CCC(N)=O)NC(=O)C(C)(C)NC(=O)[C@@H](N)Cc1ccc(O)cc1)[C@@H](C)O)[C@@H](C)O)[C@@H](C)CC)C(=O)N[C@@H](CCC(=O)O)C(=O)N[C@@H](Cc1ccc(O)cc1)C(=O)N[C@@H](CC(C)C)C(=O)N[C@@H](CC(C)C)C(=O)N[C@@H](CCC(=O)O)C(=O)NCC(=O)NCC(=O)N1CCC[C@H]1C(=O)N[C@@H](CO)C(=O)N[C@@H](CO)C(=O)NCC(=O)N[C@@H](C)C(=O)N1CCC[C@H]1C(=O)N1CCC[C@H]1C(=O)N1CCC[C@H]1C(=O)N[C@@H](CO)C(N)=O` [Example 16], in data set [1], affinity was put at a Ki of 0.106 nM. In addition, in data set [2], the CL/F is 3.6 mL/h/kg, the Tmax was 20 h, the half-life is 29.1 h and the AUCINF_D_obs is recorded as 274.9 hr*kg*nmol/L/nmol. In addition, the Cmax/D in data set [2] was found to be 3.8 kg*nmol/L/nmol. Besides, the Ki in data set [3] worked out at 11.5 nM. Further, on GLP-1 receptor (GLP-1R), the affinity, expressed as Ki, was 16.1 nM.

Regarding `CC[C@H](C)[C@H](NC(=O)[C@H](Cc1ccccc1)NC(=O)[C@H](C)NC(=O)C(C)(C)NC(=O)[C@H](CCC(N)=O)NC(=O)[C@H](C)NC(=O)[C@H](CCCCNC(=O)COCCOCCNC(=O)CC[C@H](NC(=O)CCCCCCCCCCCCCCCCCCC(=O)O)C(=O)O)NC(=O)[C@H](CCCCN)NC(=O)[C@H](CC(=O)O)NC(=O)[C@H](CC(C)C)NC(=O)[C@H](CC(C)C)NC(=O)[C@@H](NC(=O)[C@H](CO)NC(=O)[C@H](Cc1ccc(O)cc1)NC(=O)[C@H](CC(=O)O)NC(=O)[C@H](CO)NC(=O)[C@@H](NC(=O)[C@H](Cc1ccccc1)NC(=O)[C@@H](NC(=O)CNC(=O)[C@H](CCC(N)=O)NC(=O)C(C)(C)NC(=O)[C@@H](N)Cc1ccc(O)cc1)[C@@H](C)O)[C@@H](C)O)[C@@H](C)CC)C(=O)N[C@@H](CCC(=O)O)C(=O)N[C@@H](Cc1ccc(O)cc1)C(=O)N[C@@H](CC(C)C)C(=O)N[C@@H](CC(C)C)C(=O)N[C@@H](CCC(=O)O)C(=O)NCC(=O)NCC(=O)N1CCC[C@H]1C(=O)N[C@@H](CO)C(=O)N[C@@H](CO)C(=O)NCC(=O)N[C@@H](C)C(=O)N1CCC[C@H]1C(=O)N1CCC[C@H]1C(=O)N1CCC[C@H]1C(=O)N[C@@H](CO)C(N)=O` [Example 18], affinity in data set [1] was put at a Ki of 0.0835 nM. Also, in data set [2], the CL/F was 3.6 mL/h/kg, the Tmax came out at 24 h, the half-life is 34.8 h and the AUCINF_D_obs is 284.3 hr*kg*nmol/L/nmol. In data set [2], this molecule yielded a Cmax/D of 5.0 kg*nmol/L/nmol. This molecule also came in with a Ki in data set [3] of 5.71 nM. This molecule registered a Ki at GLP-1 receptor (GLP-1R) of 8.06 nM.
